Measurements from patent US20250144105A1, “CDK9 INHIBITORS” (Origenis GmbH, priority 2022, published 2025).

Target: T1, CDK9/CyclinT1 (Homo sapiens, UniProt P50750)
T1 construct: purchased ProQinase/Reaction Biology, USA 0371-0345-1
Experiment: CDK9/T1 ADPGlo kinase assay for inhibitory activity
Format: biochemical
Details: CDK9/CyclinT1 6 nM, PDKtide 40 microM, ATP 10 microM, 120 min at RT, luminescence readout
Method: The testing compound was evaluated in 12 concentrations in a 1:3 dilution series, starting from 5 microM as the highest concentration.
In a white 384 microplate (Greiner bio-one, Austria #784904,) with 2 microL of 3-fold concentrated CDK9/CyclinT1 (ProQinase/Reaction Biology, USA #0371-0345-1, LOT.: 012), final concentration (f.c.) 6 nM, in 1× kinase buffer, 2 microL of compound (3× fold concentrated in f.c. 1.66% DMSO/H2O) was added and incubated at Room Temperature (RT) for 10 min. Then 2 microL of Substrate/ATP-Mix (3× PDKtide f.c. 40 microM, SignalChem Biotech, Canada via Biozol, Eching, Germany #P10-58, LOT.: L2230-7 and 3× UltraPure ATP f.c. 10 microM (ADP Glo Kinase assay, Promega GmbH, Germany #V9102)) were added, mixed and incubated for 120 min at RT.
After incubation time, 5 microL of ADP Glo reagent (ready to use, ADP Glo Kinase assay, Promega GmbH, Germany #V9102) were added, mixed and incubated for 40 min at RT. In the last step, 10 microL of ADP Glo Detection reagent (ready to use, ADP Glo Kinase assay, Promega GmbH, Germany #V9102) were added, mixed and incubated for 30 min at RT. GloMax Discover GM3000 Reader (Promega GmbH, Germany 9700000249) was used for the readout.
The inhibitor concentration was plotted against the luminescence to determine the IC50 using XLFit 5.5 (IDBS, Guildford) to fit to a sigmoidal dose response curve with a variable slope.

T1 sequence (P50750 whole entry): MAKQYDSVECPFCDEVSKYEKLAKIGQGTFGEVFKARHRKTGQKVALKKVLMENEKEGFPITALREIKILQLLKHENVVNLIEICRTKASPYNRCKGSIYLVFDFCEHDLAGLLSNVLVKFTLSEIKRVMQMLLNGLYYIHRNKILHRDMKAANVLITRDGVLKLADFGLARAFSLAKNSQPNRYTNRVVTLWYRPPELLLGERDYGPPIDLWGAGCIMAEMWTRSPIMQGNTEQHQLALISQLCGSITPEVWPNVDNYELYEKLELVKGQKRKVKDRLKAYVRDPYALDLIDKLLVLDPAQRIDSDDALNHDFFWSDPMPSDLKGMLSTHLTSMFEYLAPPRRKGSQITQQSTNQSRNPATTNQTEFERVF
T1 sequence (O60563 whole entry partner): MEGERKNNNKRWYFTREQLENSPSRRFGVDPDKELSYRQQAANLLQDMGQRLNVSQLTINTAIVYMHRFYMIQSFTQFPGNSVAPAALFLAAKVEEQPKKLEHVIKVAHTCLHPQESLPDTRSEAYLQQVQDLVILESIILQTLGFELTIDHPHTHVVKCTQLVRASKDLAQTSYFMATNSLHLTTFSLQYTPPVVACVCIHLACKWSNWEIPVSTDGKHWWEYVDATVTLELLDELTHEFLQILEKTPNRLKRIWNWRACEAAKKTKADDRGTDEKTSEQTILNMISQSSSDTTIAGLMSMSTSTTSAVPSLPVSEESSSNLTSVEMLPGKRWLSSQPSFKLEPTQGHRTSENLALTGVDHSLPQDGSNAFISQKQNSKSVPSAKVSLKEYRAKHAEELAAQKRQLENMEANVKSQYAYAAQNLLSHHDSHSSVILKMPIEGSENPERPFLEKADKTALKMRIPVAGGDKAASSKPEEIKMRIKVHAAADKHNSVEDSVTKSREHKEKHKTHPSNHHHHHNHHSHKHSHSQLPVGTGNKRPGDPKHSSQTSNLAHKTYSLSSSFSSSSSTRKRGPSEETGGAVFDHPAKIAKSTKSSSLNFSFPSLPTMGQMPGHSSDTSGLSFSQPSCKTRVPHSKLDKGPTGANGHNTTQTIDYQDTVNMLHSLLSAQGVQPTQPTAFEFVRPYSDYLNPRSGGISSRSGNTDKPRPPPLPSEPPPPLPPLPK

Row | Compound | IC50 [nM]
1 | CC(C)N1CCC(Nc2nc(-c3c(F)cccc3F)nn3c(Cl)cnc23)CC1 [Example #10, 7-chloro-2-(2,6-difluorophenyl)-N-(1-isopropylpiperidin-4-yl)imidazo[2,1-f][1,2,4]triazin-4-amine] | < 200
2 | Fc1cccc(F)c1-c1nc(NC2CCN(C3CCOCC3)CC2)c2ncc(Cl)n2n1 [Example #11, 7-chloro-2-(2,6-difluorophenyl)-N-(1-(tetrahydro-2H-pyran-4-yl)piperidin-4-yl)imidazo[2,1-f][1,2,4]triazin-4-amine] | < 200
3 | Fc1cccc(F)c1-c1nc(NC2CCN(C3CCCC3)CC2)c2ncc(Cl)n2n1 [Example #12, 7-chloro-N-(1-cyclopentylpiperidin-4-yl)-2-(2,6-difluorophenyl)imidazo[2,1-f][1,2,4]triazin-4-amine] | < 200
4 | CN1CCCCC1CNc1nc(-c2c(F)cccc2F)nn2c(Cl)cnc12 (stereo not shown) [Example #14, [7-Chloro-2-(2,6-difluoro-phenyl)-imidazo[2,1-f][1,2,4]triazin-4-yl]-(1-methyl-piperidin-2-ylmethyl)-amine] | < 200
5 | CCN1CCCC1CNc1nc(-c2c(F)cccc2F)nn2c(Cl)cnc12 (stereo not shown) [Example #15, 7-chloro-2-(2,6-difluorophenyl)-N-((1-ethylpyrrolidin-2-yl)methyl)imidazo[2,1-f][1,2,4]triazin-4-amine] | < 200
6 | Fc1cccc(F)c1-c1nc(NC2CN3CCC2CC3)c2ncc(Cl)n2n1 (stereo not shown) [Example #18, (1-Aza-bicyclo[2.2.2]oct-3-yl)-[7-chloro-2-(2,6-difluoro-phenyl)-imidazo[2,1-f][1,2,4]triazin-4-yl]-amine] | < 200
7 | Fc1cccc(F)c1-c1nc(NCCN2CCOCC2)c2ncc(Cl)n2n1 [Example #19, [7-Chloro-2-(2,6-difluoro-phenyl)-imidazo[2,1-f][1,2,4]triazin-4-yl]-(2-morpholin-4-yl-ethyl)-amine] | < 200
8 | CC(C)(C)OC(=O)N1CCCC(CNc2nc(-c3c(F)cccc3F)nn3c(Cl)cnc23)C1 (stereo not shown) [Example #20, tert-butyl 3-(((7-chloro-2-(2,6-difluorophenyl)imidazo[2,1-f][1,2,4]triazin-4-yl)amino)methyl)piperidine-1-carboxylate] | < 200
9 | Fc1cccc(F)c1-c1nc(NCC2CCNCC2)c2ncc(Cl)n2n1 [Example #21, 7-chloro-2-(2,6-difluorophenyl)-N-(piperidin-4-ylmethyl)imidazo[2,1-f][1,2,4]triazin-4-amine] | < 200
10 | Fc1cccc(F)c1-c1nc(NCC2CCCNC2)c2ncc(Cl)n2n1 (stereo not shown) [Example #22, 7-chloro-2-(2,6-difluorophenyl)-N-(piperidin-3-ylmethyl)imidazo[2,1-f][1,2,4]triazin-4-amine] | < 200
11 | Fc1cccc(F)c1-c1nc(NCc2cccnc2)c2ncc(Cl)n2n1 [Example #36, 7-chloro-2-(2,6-difluorophenyl)-N-(pyridin-3-ylmethyl)imidazo[2,1-f][1,2,4]triazin-4-amine] | < 200
12 | Cc1cc(C)c(CNc2nc(-c3c(F)cccc3F)nn3c(Cl)cnc23)cn1 [Example #37, 7-chloro-2-(2,6-difluorophenyl)-N-((4,6-dimethylpyridin-3-yl)methyl)imidazo[2,1-f][1,2,4]triazin-4-amine] | < 200

Other lines, results leading:

Row | IC50 [nM] | Compound
13 | < 20 | Fc1cccc(F)c1-c1nc(N[C@H]2CC[C@H](N3CCOCC3)CC2)c2ncc(Cl)n2n1 [Example #1, 7-chloro-2-(2,6-difluorophenyl)-N-((1r,4r)-4-morpholinocyclohexyl)imidazo[2,1-f][1,2,4]triazin-4-amine]
14 | < 20 | CN(C)[C@H]1CC[C@H](Nc2nc(-c3c(F)cccc3F)nn3c(Cl)cnc23)CC1 [Example #3, (1r,4r)-N1-(7-chloro-2-(2,6-difluorophenyl)imidazo[2,1-f][1,2,4]triazin-4-yl)-N4,N4-dimethylcyclohexane-1,4-diamine]
15 | < 20 | N[C@H]1CC[C@H](Nc2nc(-c3c(F)cccc3F)nn3c(Cl)cnc23)CC1 [Example #4, (1r,4r)-N1-(7-chloro-2-(2,6-difluorophenyl)imidazo[2,1-f][1,2,4]triazin-4-yl)cyclohexane-1,4-diamine]
16 | < 20 | Fc1cccc(F)c1-c1nc(N[C@H]2CC[C@H](N3CCCCC3)CC2)c2ncc(Cl)n2n1 [Example #5, 7-chloro-2-(2,6-difluorophenyl)-N-((1r,4r)-4-(piperidin-1-yl)cyclohexyl)imidazo[2,1-f][1,2,4]triazin-4-amine]
17 | < 20 | Fc1cccc(F)c1-c1nc(N[C@H]2CC[C@H](N3CCCC3)CC2)c2ncc(Cl)n2n1 [Example #6, 7-chloro-2-(2,6-difluorophenyl)-N-((1r,4r)-4-(pyrrolidin-1-yl)cyclohexyl)imidazo[2,1-f][1,2,4]triazin-4-amine]
18 | < 20 | COCCN[C@H]1CC[C@H](Nc2nc(-c3c(F)cccc3F)nn3c(Cl)cnc23)CC1 [Example #7, (1r,4r)-N1-(7-chloro-2-(2,6-difluorophenyl)imidazo[2,1-f][1,2,4]triazin-4-yl)-N4-(2-methoxyethyl)cyclohexane-1,4-diamine]
19 | < 20 | FCCN[C@H]1CC[C@H](Nc2nc(-c3c(F)cccc3F)nn3c(Cl)cnc23)CC1 [Example #8, (1r,4r)-N1-(7-chloro-2-(2,6-difluorophenyl)imidazo[2,1-f][1,2,4]triazin-4-yl)-N4-(2-fluoroethyl)cyclohexane-1,4-diamine]
20 | < 20 | FCCCN[C@H]1CC[C@H](Nc2nc(-c3c(F)cccc3F)nn3c(Cl)cnc23)CC1 [Example #9, (1r,4r)-N1-(7-chloro-2-(2,6-difluorophenyl)imidazo[2,1-f][1,2,4]triazin-4-yl)-N4-(3-fluoropropyl)cyclohexane-1,4-diamine]
21 | < 20 | CN1CCC(Nc2nc(-c3c(F)cccc3F)nn3c(Cl)cnc23)CC1 [Example #13, 7-chloro-2-(2,6-difluorophenyl)-N-(1-methylpiperidin-4-yl)imidazo[2,1-f][1,2,4]triazin-4-amine]
22 | < 20 | Fc1cccc(F)c1-c1nc(NC2CCNCC2)c2ncc(Cl)n2n1 [Example #16, [7-Chloro-2-(2,6-difluoro-phenyl)-imidazo[2,1-f][1,2,4]triazin-4-yl]-piperidin-4-yl-amine]
23 | < 20 | CN1CCC(CNc2nc(-c3c(F)cccc3F)nn3c(Cl)cnc23)CC1 [Example #17, [7-Chloro-2-(2,6-difluoro-phenyl)-imidazo[2,1-f][1,2,4]triazin-4-yl]-(1-methyl-piperidin-4-ylmethyl)-amine]
24 | < 20 | NC1CCC(Nc2nc(-c3c(F)cccc3F)nn3c(Cl)cnc23)C1 (stereo not shown) [Example #24, N1-(7-chloro-2-(2,6-difluorophenyl)imidazo[2,1-f][1,2,4]triazin-4-yl)cyclopentane-1,3-diamine]
25 | < 20 | Fc1cccc(Cl)c1-c1nc(N[C@H]2CC[C@H](N3CCOCC3)CC2)c2ncc(Cl)n2n1 [Example #27, 7-chloro-2-(2-chloro-6-fluorophenyl)-N-((1r,4r)-4-morpholinocyclohexyl)imidazo[2,1-f][1,2,4]triazin-4-amine]
26 | < 20 | Clc1cccc(Cl)c1-c1nc(N[C@H]2CC[C@H](N3CCOCC3)CC2)c2ncc(Cl)n2n1 [Example #28, 7-chloro-2-(2,6-dichlorophenyl)-N-((1r,4r)-4-morpholinocyclohexyl)imidazo[2,1-f][1,2,4]triazin-4-amine]
27 | < 20 | OCCN[C@H]1CC[C@H](Nc2nc(-c3c(F)cccc3F)nn3c(Cl)cnc23)CC1 [Example #32, 2-(((1r,4r)-4-((7-chloro-2-(2,6-difluorophenyl)imidazo[2,1-f][1,2,4]triazin-4-yl)amino)cyclohexyl)amino)ethan-1-ol]
28 | < 20 | CN1CCN([C@H]2CC[C@H](Nc3nc(-c4c(F)cccc4F)nn4c(Cl)cnc34)CC2)CC1 [Example #38, 7-chloro-2-(2,6-difluorophenyl)-N-((1r,4r)-4-(4-methylpiperazin-1-yl)cyclohexyl)imidazo[2,1-f][1,2,4]triazin-4-amine]
